Data as given in patent publication US10167299B2, “1-(3-aminopropyl) substituted cyclic amine compounds, preparation method therefor, and pharmaceutical compositions and uses thereof” (SHANGHAI INSTITUTE OF MATERIA MEDICA, CHINESE ACADEMY OF …, priority 2013, dated 2019).
≈ marks a conversion by molar mass, not a printed value.

What was measured:
in vivo = settings: male, rat
HIV-1SF162 virus strain [1] = assay: Inhibition of viral replication in PBMC infected with HIV-1SF162; type: cell-based; settings: Human immunodeficiency virus 1, PBMC
Protocol: (§1) The virus was titrated according to the modified method of Johnson & Byington. Briefly, the HIV-1 stock solution was subject to four-fold dilution in a 96-well plate (ten gradients) sextuplicate for each gradient, while setting six control-wells. Into each well was added 100 μl (5×10^6/ml) PHA-stimulated PBMC cells and final volume per well was 200 μl. The cells were cultured at 37° C. with 5% CO2. […] On the seventh day, the infected supernatant was collected and lysed with 0.5% Triton X100. The p24 antigen was detected by ELISA and TCID50 of virus was calculated according to Reed & Muench method (50% Tissue culture infection dose).
(§2) The starting concentration was 1 μM, six dilutions were obtained, and each well contained 200 μl mixture. While wells not containing drugs were set as control. […] After homogeneously mixed, the mixture was immediately added to 48-well plate containing diluted drug and each well was added with 200 μl of mixture. MVC was used as positive control. The cells were cultured at 37° C. with 5% CO2 for seven days (drug with the same concentration was added on the third day). The supernatant was collected, lysed and inactivated with 0.5% Triton X-100. The inhibition effect of drug on HIV-1 replication was detected using p24 antigen capture ELISA method.

HIV-1SF162 virus strain [2] = assay: Inhibition of viral replication in HOS-CD4-CCR5 cells infected with HIV-1SF162; type: cell-based; settings: Human immunodeficiency virus 1, HOS-CD4-CCR5
Protocol: (§3) On the day before the test, 1×10^5/ml of HOS-CD4-CCR5 cells were inoculated in 96-well plates with 100 μl for each well. The compound to be tested was subject to 5-fold dilution in 96-well microtiter plate with DMEM complete medium (containing 10% FBS). The starting concentration was 1 μM and six dilutions were obtained. Triplicate wells were set for each dilution and each well contained 100 μl mixture. While wells not containing drugs were set as control. The supernatant was removed and 100 μl of drug was added and incubated for 2 h. Then 100 μl of HIV-1SF162 and HIV-1Ba-L were added to dilute supernatant. The cells were infected for 1 h, free virus was washed out and drug with the same final concentration was added. MVC was used as positive control. The cells were cultured at 37° C. with 5% CO2 for three days. The supernatant was collected, lysed and inactivated with 0.5% Triton X-100. The inhibition effect of drug on HIV-1 replication was detected using p24 antigen capture ELISA method.

hERG = hERG (Homo sapiens (Human), UniProt Q12809)
Sequence of hERG (Q12809 whole entry): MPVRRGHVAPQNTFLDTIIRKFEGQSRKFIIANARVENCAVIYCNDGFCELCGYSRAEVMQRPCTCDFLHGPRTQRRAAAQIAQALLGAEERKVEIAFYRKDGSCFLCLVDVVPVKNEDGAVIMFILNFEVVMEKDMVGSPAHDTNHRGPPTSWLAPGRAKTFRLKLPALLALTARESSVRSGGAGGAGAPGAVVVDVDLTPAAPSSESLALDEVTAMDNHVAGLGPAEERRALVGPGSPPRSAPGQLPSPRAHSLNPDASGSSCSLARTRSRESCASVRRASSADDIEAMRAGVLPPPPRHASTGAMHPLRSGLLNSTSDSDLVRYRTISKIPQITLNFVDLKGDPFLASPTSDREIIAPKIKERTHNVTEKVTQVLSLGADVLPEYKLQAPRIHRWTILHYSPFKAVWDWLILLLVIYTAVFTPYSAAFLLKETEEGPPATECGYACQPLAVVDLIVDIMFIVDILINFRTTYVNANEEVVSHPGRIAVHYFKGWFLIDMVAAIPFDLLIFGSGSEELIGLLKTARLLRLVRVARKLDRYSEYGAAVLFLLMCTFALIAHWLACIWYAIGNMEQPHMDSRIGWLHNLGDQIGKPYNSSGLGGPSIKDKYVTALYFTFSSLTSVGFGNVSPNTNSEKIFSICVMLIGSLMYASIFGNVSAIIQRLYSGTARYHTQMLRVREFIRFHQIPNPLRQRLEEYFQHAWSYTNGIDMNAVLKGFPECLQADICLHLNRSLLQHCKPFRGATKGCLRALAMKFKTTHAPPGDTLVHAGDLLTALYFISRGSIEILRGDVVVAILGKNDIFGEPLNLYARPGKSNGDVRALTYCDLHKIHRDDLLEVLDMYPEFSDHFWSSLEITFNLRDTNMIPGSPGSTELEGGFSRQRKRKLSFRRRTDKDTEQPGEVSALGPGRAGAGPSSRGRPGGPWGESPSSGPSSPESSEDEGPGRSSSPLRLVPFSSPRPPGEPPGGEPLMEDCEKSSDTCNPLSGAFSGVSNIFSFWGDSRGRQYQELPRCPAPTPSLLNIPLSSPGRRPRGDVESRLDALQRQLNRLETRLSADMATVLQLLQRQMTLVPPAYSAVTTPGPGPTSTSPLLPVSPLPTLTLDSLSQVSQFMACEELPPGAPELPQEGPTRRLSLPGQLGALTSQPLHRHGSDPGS

HIV-1SF162 virus strain [3] = assay: Inhibition activity on TZM-bl cells infected with HIV-1SF162
HIV-1KM018 virus strain = assay: Inhibition of viral replication in PBMC infected with HIV-1KM018; type: cell-based; settings: Human immunodeficiency virus 1, PBMC
Protocol: as §1, §2

HIV-1Ba-L virus strain [4] = assay: Inhibition of viral replication in PBMC infected with HIV-1Ba-L; type: cell-based; settings: Human immunodeficiency virus 1, PBMC
Protocol: The virus was titrated according to the modified method of Johnson & Byington. Briefly, the HIV-1 stock solution was subject to four-fold dilution in a 96-well plate (ten gradients) sextuplicate for each gradient, while setting six control-wells. Into each well was added 100 μl (5×10^6/ml) PHA-stimulated PBMC cells and final volume per well was 200 μl. The cells were cultured at 37° C. with 5% CO2. On the third day, 100 μl of fresh RPMI-1640 complete medium was supplemented. On the seventh day, the infected supernatant was collected and lysed with 0.5% Triton X100. The p24 antigen was detected by ELISA and TCID50 of virus was calculated according to Reed & Muench method (50% Tissue culture infection dose).
The compound to be tested was subject to 5-fold dilution in 48-well plate with RPMI-1640 complete medium (containing 10% FBS). The starting concentration was 1 μM, six dilutions were obtained, and each well contained 200 μl mixture. While wells not containing drugs were set as control. Virus (MOI=0.01) was added to 5×10^6/ml of PBMC cells which have been stimulated by PHA for 72 h. After homogeneously mixed, the mixture was immediately added to 48-well plate containing diluted drug and each well was added with 200 μl of mixture. MVC was used as positive control. The cells were cultured at 37° C. with 5% CO2 for seven days (drug with the same concentration was added on the third day). The supernatant was collected, lysed and inactivated with 0.5% Triton X-100. The inhibition effect of drug on HIV-1 replication was detected using p24 antigen capture ELISA method.

[5] = Toxicity test of compounds on PBMC cells (MTT); type: cell-based; settings: human; PBMC cells (Table 4)
Protocol: (§4) The compound to be tested was subject to 5-fold dilution in a 96-well microtiter plate with RPMI-1640 or DMEM complete medium (containing 10% FBS) (Six dilution) triplicate for each dilution and 100 μl for each well. While wells not containing drugs were set as control. Into each well was added 100 μl of 4×10^5/ml PM1, HOS-CD4-CCR5 cells or 100 μl of 5×10^6/ml PHA stimulated PBMC. The cells were cultured at 37° C. with 5% CO2 for three days (PBMC cells were cultured for seven days and 100 μl of fresh RPMI-1640 complete medium was supplemented on the third day). Cytotoxicity was tested with MTT assay. OD values were measured by ELx800 microplate reader. The detection wavelength was 570 nm, and the reference wavelength was 630 nm.

[6] = Cytotoxicity (CC50) in TZM-bl cells; type: cell-based; settings: human; TZM-bl cells (Table 3); read-out: CC50
[7] = Toxicity test of compounds on HOS-CD4-CCR5 cells (MTT); type: cell-based; settings: human; HOS-CD4+-CCR5 cells (Table 7)
Protocol: as §4

HIV-1Ba-L virus strain [8] = assay: Inhibition of viral replication in HOS-CD4-CCR5 cells infected with HIV-1Ba-L; type: cell-based; settings: Human immunodeficiency virus 1, HOS-CD4-CCR5
Protocol: as §3

For `Cc1nnc(C(C)C)n1C1CC2CCC(C1)N2CC[C@H](NC(=O)C1CCC(F)(F)CC1)c1ccsc1` (stereo partly drawn) [Compound 22, 4,4-difluoro-N-[(1S)-3-[exo-3-(3-isopropyl-5-methyl-4H-1,2,4-triazol-4-yl)-8-azabicyclo[3.2.1]octane-8-yl]-1-(thiophen-3-yl)propyl]cyclohexane-1-carboxamide], the bioavailability (in vivo) was 14.5%, the AUC(0-t) (in vivo; 10 mg/kg) was 4150 ng·h/mL and the AUC(0-inf) (in vivo; iv, 10 mg/kg) was 4160 ng·h/mL. The AUC(0-t) (in vivo; iv, 10 mg/kg) was 4150 ng·h/mL, the Cmax (in vivo; iv, 10 mg/kg) was 3780 ng/mL and the MRT (in vivo; iv, 10 mg/kg) was 0.84 h. For the same compound, the Tmax (in vivo; iv, 10 mg/kg) was 0.25 h, the half-life (in vivo; iv, 10 mg/kg) was 1 h and the AUC(0-inf) (in vivo; po, 20 mg/kg) was 1260 ng·h/mL. For the same compound, the AUC(0-t) (in vivo; po, 20 mg/kg) was 1210 ng·h/mL, the Cmax (in vivo; po, 20 mg/kg) was 306 ng/mL and the MRT (in vivo; po, 20 mg/kg) was 2.55 h. It also gave a Tmax (in vivo; po, 20 mg/kg) of 2 h, a bioavailability (in vivo; po, 20 mg/kg) of 14.5% and a half-life (in vivo; po, 20 mg/kg) of 1.55 h. For the same compound, the EC50 (HIV-1SF162 virus strain [1]) was 2.65 ng/mL (≈ 0.0051 µM), the EC50 (HIV-1SF162 virus strain [2]) was 9.15 ng/mL (≈ 0.0176 µM) and the “hERG inhibition activity in words, versus positive control compounds” value (hERG) was “better that those of positive control compounds”. The EC50 (HIV-1SF162 virus strain [3]; Human immunodeficiency virus 1, TZM-bl) was 1.53 ng/mL (≈ 0.00294 µM), the “therapeutic index (TI)” value (HIV-1SF162 virus strain [3]; TZM-bl cells infected with HIV-1SF162) was over 130718.95 and the “cytotoxicity in vitro and therapeutic index in words, versus positive control compound” value (HIV-1SF162 virus strain [3]; TZM-bl cells infected with HIV-1SF162, conclusion from Table 3) was “better than positive control compound”. The EC50 (HIV-1KM018 virus strain) was 5.33 ng/mL (≈ 0.0103 µM), the EC50 (HIV-1Ba-L virus strain [4]) was 5.13 ng/mL (≈ 0.00987 µM) and the CC50 at 7 days [5] was 635000 ng/mL (≈ 1220 µM). It also gave a CC50 [6] of over 200000 ng/mL, a CC50 at 3 days [7] of over 800000 ng/mL and an EC50 (HIV-1Ba-L virus strain [8]) of 4.83 ng/mL (≈ 0.00929 µM).
